Measured values: US9580444B2, “Polycyclic pyrazolinone derivative and herbicide comprising same as effective component thereof” (priority 2013, dated 2017)

Assays:
Test in all cases: Test Example-1: herbicidal effect by a treatment before weeds are generated under submerged conditions
Assay type in all cases: in vivo
Settings in all cases: 500 g a.i/ha, pre-emergence treatment, about 15 days after treatment, score 0-5
[1] = tested on: Echinochloa oryzicola (barnyard grass)
Protocol: (§1) Using the formulation prepared according to the methods described above, the herbicidal effect of the bicyclic pyrazolinone derivative of the invention according to the methods shown in Test Examples below was examined. The herbicidal effect with respect to the test weeds or the phytotoxicity with respect to the test crops was examined according to the following criteria, and evaluated in six stage scores of 0 to 5.
(§2) A plastic cup of 30 cm^2 was filled with paddy soil, soil puddling was performed, seeds of Echinochloa oryzicola (barnyard grass), Cyperus difformis (smallflower umbrella plant), Monochoria vaginalis (monochoria), Scirpus juncoides (bulrush), and Eleocharis acicularis (needle spikerush), and Lindernia procumbens (common false pimpernel), Rotala indica (indian toothcup), Elatine triandra (waterwort) as other annual broad leaf weeds were seeded therein, and kept in a submerged state. A wettable powder or an emulsifiable concentrate of the compound of the present invention prepared according to Formulation Example was diluted on the weed seeding day, and a submersing treatment was performed so as to be a predetermined dosage. The herbicidal effect with respect to the test weeds about 15 days after the treatment was evaluated according to the evaluation criteria in six stages of 0 to 5 described above.

[2] = tested on: Monochoria vaginalis (monochoria)
Protocol: as §1, §2

[3] = tested on: other annual broad leaf weeds (Lindernia procumbens, Rotala indica, Elatine triandra)
Protocol: as §1, §2

[4] = tested on: Cyperus difformis (smallflower umbrella plant)
Protocol: as §1, §2

[5] = tested on: Eleocharis acicularis (needle spikerush)
Protocol: as §1, §2

[6] = tested on: Scirpus juncoides (bulrush)
Protocol: as §1, §2

## CC(C)Oc1ccc(Oc2cc(-c3c(Cl)n4n(c3=O)CCCC4)c(F)cc2Cl)cc1 [Compound 3-13]
[1]
  Herbicidal effect Echinochloa oryzicola: 5 (Herbicidal effect/phytotoxicity was 90% or greater)
[2]
  Herbicidal effect Monochoria vaginalis: 5 (Herbicidal effect/phytotoxicity was 90% or greater)
[3]
  Herbicidal effect Broadleaf weed: 5 (Herbicidal effect/phytotoxicity was 90% or greater)
[4]
  Herbicidal effect Cyperus difformis: 5 (Herbicidal effect/phytotoxicity was 90% or greater)
[5]
  Herbicidal effect Eleocharis acicularis: 5 (Herbicidal effect/phytotoxicity was 90% or greater)
[6]
  Herbicidal effect Scirpus juncoides: 5 (Herbicidal effect/phytotoxicity was 90% or greater)

## COCOc1cccc(Oc2cc(-c3c(Cl)n4n(c3=O)CCCC4)c(F)cc2Cl)c1 [Compound 3-14]
[1]
  Herbicidal effect Echinochloa oryzicola: 5 (Herbicidal effect/phytotoxicity was 90% or greater)
[2]
  Herbicidal effect Monochoria vaginalis: 5 (Herbicidal effect/phytotoxicity was 90% or greater)
[3]
  Herbicidal effect Broadleaf weed: 5 (Herbicidal effect/phytotoxicity was 90% or greater)
[4]
  Herbicidal effect Cyperus difformis: 5 (Herbicidal effect/phytotoxicity was 90% or greater)
[5]
  Herbicidal effect Eleocharis acicularis: 5 (Herbicidal effect/phytotoxicity was 90% or greater)
[6]
  Herbicidal effect Scirpus juncoides: 5 (Herbicidal effect/phytotoxicity was 90% or greater)

## COCOc1ccc(Oc2cc(-c3c(Cl)n4n(c3=O)CCCC4)c(F)cc2Cl)cc1 [Compound 3-15]
[1]
  Herbicidal effect Echinochloa oryzicola: 5 (Herbicidal effect/phytotoxicity was 90% or greater)
[2]
  Herbicidal effect Monochoria vaginalis: 5 (Herbicidal effect/phytotoxicity was 90% or greater)
[3]
  Herbicidal effect Broadleaf weed: 5 (Herbicidal effect/phytotoxicity was 90% or greater)
[4]
  Herbicidal effect Cyperus difformis: 5 (Herbicidal effect/phytotoxicity was 90% or greater)
[5]
  Herbicidal effect Eleocharis acicularis: 5 (Herbicidal effect/phytotoxicity was 90% or greater)
[6]
  Herbicidal effect Scirpus juncoides: 5 (Herbicidal effect/phytotoxicity was 90% or greater)

## COC(=O)COc1ccccc1Oc1cc(-c2c(Cl)n3n(c2=O)CCCC3)c(F)cc1Cl [Compound 3-16]
[1]
  Herbicidal effect Echinochloa oryzicola: 5 (Herbicidal effect/phytotoxicity was 90% or greater)
[2]
  Herbicidal effect Monochoria vaginalis: 5 (Herbicidal effect/phytotoxicity was 90% or greater)
[3]
  Herbicidal effect Broadleaf weed: 5 (Herbicidal effect/phytotoxicity was 90% or greater)
[4]
  Herbicidal effect Cyperus difformis: 5 (Herbicidal effect/phytotoxicity was 90% or greater)
[5]
  Herbicidal effect Eleocharis acicularis: 5 (Herbicidal effect/phytotoxicity was 90% or greater)
[6]
  Herbicidal effect Scirpus juncoides: 5 (Herbicidal effect/phytotoxicity was 90% or greater)

## N#CCOc1ccc(Oc2cc(-c3c(Cl)n4n(c3=O)CCCC4)c(F)cc2Cl)cc1 [Compound 3-20]
[1]
  Herbicidal effect Echinochloa oryzicola: 5 (Herbicidal effect/phytotoxicity was 90% or greater)
[2]
  Herbicidal effect Monochoria vaginalis: 5 (Herbicidal effect/phytotoxicity was 90% or greater)
[3]
  Herbicidal effect Broadleaf weed: 5 (Herbicidal effect/phytotoxicity was 90% or greater)
[4]
  Herbicidal effect Cyperus difformis: 5 (Herbicidal effect/phytotoxicity was 90% or greater)
[5]
  Herbicidal effect Eleocharis acicularis: 5 (Herbicidal effect/phytotoxicity was 90% or greater)
[6]
  Herbicidal effect Scirpus juncoides: 5 (Herbicidal effect/phytotoxicity was 90% or greater)

## C=CCOC(=O)C=C(COc1ccccc1Oc1cc(-c2c(Cl)n3n(c2=O)CCCC3)c(F)cc1Cl)OCC [Compound 3-25]
[1]
  Herbicidal effect Echinochloa oryzicola: 5 (Herbicidal effect/phytotoxicity was 90% or greater)
[2]
  Herbicidal effect Monochoria vaginalis: 5 (Herbicidal effect/phytotoxicity was 90% or greater)
[3]
  Herbicidal effect Broadleaf weed: 5 (Herbicidal effect/phytotoxicity was 90% or greater)
[4]
  Herbicidal effect Cyperus difformis: 5 (Herbicidal effect/phytotoxicity was 90% or greater)
[5]
  Herbicidal effect Eleocharis acicularis: 5 (Herbicidal effect/phytotoxicity was 90% or greater)
[6]
  Herbicidal effect Scirpus juncoides: 5 (Herbicidal effect/phytotoxicity was 90% or greater)

## C=C(COc1ccccc1Oc1cc(-c2c(Cl)n3n(c2=O)CCCC3)c(F)cc1Cl)c1cccc(Cl)c1 [Compound 3-26]
[1]
  Herbicidal effect Echinochloa oryzicola: 5 (Herbicidal effect/phytotoxicity was 90% or greater)
[2]
  Herbicidal effect Monochoria vaginalis: 5 (Herbicidal effect/phytotoxicity was 90% or greater)
[3]
  Herbicidal effect Broadleaf weed: 5 (Herbicidal effect/phytotoxicity was 90% or greater)
[4]
  Herbicidal effect Cyperus difformis: 5 (Herbicidal effect/phytotoxicity was 90% or greater)
[5]
  Herbicidal effect Eleocharis acicularis: 5 (Herbicidal effect/phytotoxicity was 90% or greater)
[6]
  Herbicidal effect Scirpus juncoides: 5 (Herbicidal effect/phytotoxicity was 90% or greater)

## C=CCOc1ccccc1Oc1cc(-c2c(Cl)n3n(c2=O)CCCC3)c(F)cc1Cl [Compound 3-27]
[1]
  Herbicidal effect Echinochloa oryzicola: 5 (Herbicidal effect/phytotoxicity was 90% or greater)
[2]
  Herbicidal effect Monochoria vaginalis: 5 (Herbicidal effect/phytotoxicity was 90% or greater)
[3]
  Herbicidal effect Broadleaf weed: 5 (Herbicidal effect/phytotoxicity was 90% or greater)
[4]
  Herbicidal effect Cyperus difformis: 5 (Herbicidal effect/phytotoxicity was 90% or greater)
[5]
  Herbicidal effect Eleocharis acicularis: 5 (Herbicidal effect/phytotoxicity was 90% or greater)
[6]
  Herbicidal effect Scirpus juncoides: 5 (Herbicidal effect/phytotoxicity was 90% or greater)

## C=CCOc1ccc(Oc2cc(-c3c(Cl)n4n(c3=O)CCCC4)c(F)cc2Cl)cc1 [Compound 3-29]
[1]
  Herbicidal effect Echinochloa oryzicola: 5 (Herbicidal effect/phytotoxicity was 90% or greater)
[2]
  Herbicidal effect Monochoria vaginalis: 5 (Herbicidal effect/phytotoxicity was 90% or greater)
[3]
  Herbicidal effect Broadleaf weed: 5 (Herbicidal effect/phytotoxicity was 90% or greater)
[4]
  Herbicidal effect Cyperus difformis: 5 (Herbicidal effect/phytotoxicity was 90% or greater)
[5]
  Herbicidal effect Eleocharis acicularis: 5 (Herbicidal effect/phytotoxicity was 90% or greater)
[6]
  Herbicidal effect Scirpus juncoides: 5 (Herbicidal effect/phytotoxicity was 90% or greater)

## C#CC(C)Oc1ccccc1Oc1cc(-c2c(Cl)n3n(c2=O)CCCC3)c(F)cc1Cl (stereo not drawn) [Compound 3-31]
[1]
  Herbicidal effect Echinochloa oryzicola: 5 (Herbicidal effect/phytotoxicity was 90% or greater)
[2]
  Herbicidal effect Monochoria vaginalis: 5 (Herbicidal effect/phytotoxicity was 90% or greater)
[3]
  Herbicidal effect Broadleaf weed: 5 (Herbicidal effect/phytotoxicity was 90% or greater)
[4]
  Herbicidal effect Cyperus difformis: 5 (Herbicidal effect/phytotoxicity was 90% or greater)
[5]
  Herbicidal effect Eleocharis acicularis: 5 (Herbicidal effect/phytotoxicity was 90% or greater)
[6]
  Herbicidal effect Scirpus juncoides: 5 (Herbicidal effect/phytotoxicity was 90% or greater)

## COc1cc(F)ccc1Oc1cc(-c2c(Cl)n3n(c2=O)CCCC3)c(F)cc1Cl [Compound 3-33]
[1]
  Herbicidal effect Echinochloa oryzicola: 5 (Herbicidal effect/phytotoxicity was 90% or greater)
[2]
  Herbicidal effect Monochoria vaginalis: 5 (Herbicidal effect/phytotoxicity was 90% or greater)
[3]
  Herbicidal effect Broadleaf weed: 5 (Herbicidal effect/phytotoxicity was 90% or greater)
[4]
  Herbicidal effect Cyperus difformis: 5 (Herbicidal effect/phytotoxicity was 90% or greater)
[5]
  Herbicidal effect Eleocharis acicularis: 5 (Herbicidal effect/phytotoxicity was 90% or greater)
[6]
  Herbicidal effect Scirpus juncoides: 5 (Herbicidal effect/phytotoxicity was 90% or greater)

## C=CCOc1cc(F)ccc1Oc1cc(-c2c(Cl)n3n(c2=O)CCCC3)c(F)cc1Cl [Compound 3-34]
[1]
  Herbicidal effect Echinochloa oryzicola: 5 (Herbicidal effect/phytotoxicity was 90% or greater)
[2]
  Herbicidal effect Monochoria vaginalis: 5 (Herbicidal effect/phytotoxicity was 90% or greater)
[3]
  Herbicidal effect Broadleaf weed: 5 (Herbicidal effect/phytotoxicity was 90% or greater)
[4]
  Herbicidal effect Cyperus difformis: 5 (Herbicidal effect/phytotoxicity was 90% or greater)
[5]
  Herbicidal effect Eleocharis acicularis: 5 (Herbicidal effect/phytotoxicity was 90% or greater)
[6]
  Herbicidal effect Scirpus juncoides: 5 (Herbicidal effect/phytotoxicity was 90% or greater)
